Four molecules from patent publication US5670364A, “A83543 compounds and process for production thereof” (priority 1995, dated 1997) can be followed below.

Converted amounts (≈) assume the structure as drawn.

Data set [1] concerns Aster Leafhopper. The data set can be described thus: Mite/Insect Screen, aster leafhopper (ALH). It is filed as in vivo. The settings on record: Macrosteles fascifrons, 24 hr. The procedure: (§1) The Formula 2 compounds were tested for miticidal and insecticidal activity in the following mite/insect screen. Each test compound was formulated by dissolving the compound in an acetone-alcohol (1:1) mixture containing 23 g of TOXIMUL R (sulfonate/nonionic emulsifier blend) and 13 g of TOXIMUL S (sulfonate/nonionic emulsifier blend) per liter. These mixtures were then diluted with water to give the indicated concentrations.
(§2) Two-spotted spider mites and cotton aphids were introduced on squash cotyledons and allowed to establish on both leaf surfaces. The leaves were then sprayed with 5 ml of test solutions using a DeVilbiss atomizing sprayer at 10 psi. Both surfaces of the leaves were covered until run off and then allowed to dry for one hour. After standard exposure periods percent mortality was evaluated. Additional insects were evaluated using similar formulations and evaluation procedures.

The subject of data set [2] is Beet Armyworm. As to the kind of experiment: Mite/Insect Screen, beet armyworm (BAW). It is filed as in vivo, Spodoptera exiqua. The conditions noted are these: Spodoptera exigua, 144 h, 6 day. The procedure:
as §1, §2

Data set [3] has as its system Cotton Aphid. As to the kind of experiment: Mite/Insect Screen, cotton aphid (CA). The class given is in vivo, Aphis gossypii Glover. The settings on record: Aphis gossypii, 4-5 day. The procedure: as §1, §2
In data set [4] the test system is German Cockroach. As to the kind of experiment: Mite/Insect Screen, German cockroach (GECR). It is filed as in vivo. The conditions noted are these: Blattella germanica. The procedure:
as §1, §2

Data set [5] deals with Rootknot Nematode. The data set can be described thus: Mite/Insect Screen, rootknot nematode (NEM). It is filed as in vivo, Meiiiodyne spp. The conditions noted are these: 264 h, 11 day. The procedure: as §1, §2
In data set [6] the test system is Southern Corn Rootworm. As to the kind of experiment: Mite/Insect Screen, southern corn rootworm (SCRW). The class given is in vivo, Diabrotica undecimpunctata howardi. The settings on record: 264 h, 11 day. The procedure: as §1, §2
The test system of data set [7] is Tobacco Budworm. The data set can be described thus: Mite/Insect Screen, tobacco budworm (TBW). The settings on record: Heliothis virescens, 144 h, 6 day; for inhibition at 50 ppm: 50 ppm (rate in parenthesis). It is filed as in vivo. The procedure:
as §1, §2

Data set [8] concerns Two-spotted Spider Mite. As to the kind of experiment: Mite/Insect Screen, two-spotted spider mite (TSSM). It is filed as in vivo. The settings on record: Tetranychus urticae, 4-5 day; for inhibition at 50 ppm: 50 ppm (rate in parenthesis). The procedure:
as §1, §2

The subject of data set [9] is neonate tobacco budworm. As to the kind of experiment: LD50 against neonate tobacco budworm, petri dish assay. It is filed as in vivo. The conditions noted are these: Heliothis virescens; mean of two tests; mortality evaluated at 24 and 48 hours. The procedure:
Formula 2 compounds were evaluated in the following assay to determine the LD50 against neonate tobacco budworm (Heliothis virescens). A petri dish (100 mm×20 mm) is inverted and the lid lined with a #1 qualitative filter paper. Ten neonate larvae are placed in each dish and a 1 ml test solution is pipetted onto the insects. The petri dish bottom is then placed on the lid to contain the larvae. At 1 hour after treatment, a small piece of Heliothis diet (modified slurry, Southland Products, Lake Village, AR) is added to each dish. The mortality is evaluated at 24 and 48 hours. The tests were run in triplicate.

Data set [10] concerns adult stable fly. The data set can be described thus: in vitro activity against adult stable fly. It is filed as in vivo. The settings on record: Stomoxys calcitrans, 48 hours. The procedure: (§3) The Formula 2 compounds are also active against members of the insect order Diptera. Tables XI and XII summarize the in vitro studies of the Formula 2 compounds against blowfly larvae and adult stable fly at 48 hours.

For data set [11], the system named is blowfly larvae. As to the kind of experiment: in vitro activity against blowfly larvae. The class given is in vivo. The conditions noted are these: 10.0 ppm, 48 hours. The procedure:
as §3

Consider `CCC1CCCC(OC2CCC(N(C)C)C(C)O2)C(C)C(=O)C2=CC3C(C=C(C)C4CC(OC5OC(C)C(O)C(OC)C5OC)CC43)C2CC(=O)O1` (stereo not shown) [A83543O], for which the inhibition (as a rule, how much of the control response was suppressed) at 200 ppm in data set [1] was 100%; in [2], 100%; in data set [3], 0%; in [4] (168 h, 7 day) it was 0%; in data set [4] (504 h, 21 day), 20%; in data set [5], 0%. The inhibition at 200 ppm in [6] is 0%; in [7] (200 ppm) it was 100%; in data set [8] it was 100%. Further, the inhibition at 400 ppm amounted to 100% in [1]; 100% in data set [2]; 100% in data set [3]; 0% in [4] (168 h, 7 day); 100% in data set [4] (504 h, 21 day); 0% in [5]. Besides, the inhibition at 400 ppm in data set [6] came to 0%; in [7], 100%; in [8], 100%. Further, the LC50 (as a rule, the concentration that kills 50% of the test population) in data set [9] is 1.4 µg/mL (≈ 1.91 µM). Besides, the mortality (in general, the percentage killed) at 5 ppm in data set [10] (5 ppm) was determined as 100%.
On to `CCC1CCCC(OC2CCC(N(C)C)C(C)O2)C(C)C(=O)C2=CC3C(C=CC4CC(OC5OC(C)C(O)C(OC)C5O)CC43)C2CC(=O)O1` (stereo not shown) [A83543U], for which the inhibition at 200 ppm in data set [1] worked out at 100%; in data set [2], 100%; in data set [3], 0%; in [4] (168 h, 7 day), 0%; in data set [4] (504 h, 21 day), 0%; in data set [5] it was 0%. In addition, the inhibition at 200 ppm in data set [6] and in data set [8] was 0% throughout. For the same molecule, the inhibition at 400 ppm came out at 100% in data set [1]; 100% in data set [2]; 0% in data set [3]; 0% in data set [4] (168 h, 7 day); 0% in [4] (504 h, 21 day); 0% in data set [5]. Besides, the inhibition at 400 ppm in [6] stood at 0%; in data set [7], 100%; in data set [8] it was 0%. The inhibition at 50 ppm in [7] came to 100%. In data set [9], this molecule yielded an LC50 of 22 µg/mL (≈ 31.3 µM).
In the case of `COC1C(OC2CC3C=CC4C5CC(=O)OC(C)CCCC(OC6CCC(N(C)C)C(C)O6)C(C)C(=O)C5=CC4C3C2)OC(C)C(O)C1OC` (stereo not shown) [A83543Y], the inhibition at 200 ppm in [1] was 60%; in [2], 80%; in data set [3] it was 0%; in data set [4] (168 h, 7 day) it was 0%; in data set [6] it was 0%. Also, the inhibition at 400 ppm in data set [1] came to 80%; in data set [2], 100%; in [3], 0%; in data set [4] (168 h, 7 day), 0%; in [6], 0%; in data set [7], 100%. Further, 400 ppm produced 100% inhibition in data set [8]. Also, the inhibition at 50 ppm in [7] and in data set [8] was 0% each time. In addition, the LC50 in [9] was 20 µg/mL (≈ 28.4 µM). Besides, the “% mortality” value in data set [11] is 100%. For the same molecule, in data set [10] (10 ppm), the mortality at 10 ppm came to 90%.
On to `CCC1CCCC(OC2CCC(NC)C(C)O2)C(C)C(=O)C2=CC3C(C=CC4CC(OC5OC(C)C(O)C(OC)C5OC)CC43)C2CC(=O)O1` (stereo not shown) [N-demethyl-K, N-demethyl-A83543K], for which the inhibition at 200 ppm in data set [1] came out at 100%; in data set [2], 100%; in data set [3], 0%; in data set [4] (168 h, 7 day), 0%; in data set [4] (504 h, 21 day), 20%. The inhibition at 400 ppm in data set [1] is 100%; in data set [2], 100%; in data set [3] it was 0%; in data set [4] (168 h, 7 day), 0%; in data set [4] (504 h, 21 day), 60%; in data set [5], 100%. Also, the inhibition at 400 ppm in data set [6] came to 60%; in data set [7], 100%; in data set [8], 100%. Further, the inhibition at 50 ppm in data set [7] was found to be 100%; in [8], 0%. In [9], this molecule had an LC50 of 9.8 µg/mL (≈ 13.9 µM).
